Source: US11945825B2, “Compositions and methods for regulating glucose homeostasis and insulin action” (UNIVERSITY OF VIRGINIA PATENT FOUNDATION, priority 2012, dated 2024)

Tests used:
[1] = patients consuming ˜300 mg/d, over several months, no change in food intake; cited from earlier work
[2] = mouse, in vivo; cited from earlier work
[3] = system: isolated mouse liver mitochondria; conditions: 5 μM
L6 myoblasts [4] = conditions: 1 μM uncoupler, 1 μM oligomycin
L6 cells [5] = conditions: 20 μM, 20 min
[6] = system: AMP-activated protein kinase; conditions: L6 cells, 40 min
L6 myoblasts [7] = experiment: Oxygen consumption rate dose response (Seahorse XF24); assay type: cell-based, rat
L6 myotubes = conditions: 5 min treatment
L6 cells [8] = system: L6 cells

Structure (SMILES): O=[N+]([O-])c1ccc(O)c([N+](=O)[O-])c1 [DNP, 2,4-dinitrophenol]
- average weight loss [1]: 1.5 pounds per week
- metabolic effects in mice [2]: improved serological glucose, triglyceride, and insulin levels, as well as decreased oxidative damage, reduced body weight, and increased longevity

Structure (SMILES): N#CC(C#N)=NNc1ccc(OC(F)(F)F)cc1 [FCCP, carbonyl cyanide p-trifluoromethoxyphenylhydrazone]
- electron donation to the ETC ([3]; after 2 μM rotenone): do not donate electrons to the ETC downstream of complex I
- effect on complex II (succinate-stimulated respiration) ([3]; succinate added at 20 min): do not affect complex II
- respiration in the presence of oligomycin (L6 myoblasts [4]): increase oxygen consumption in the presence of oligomycin
- cellular ATP levels (L6 cells [5]): loss of cellular ATP
- AMPK activation [6]: activation of AMP-activated protein kinase
- shape of oxygen consumption dose response curve (L6 myoblasts [7]): inverted bell shaped curve of effectiveness
- intracellular acidification relative to BAM15 (L6 myotubes): 2 fold
- plasma membrane potential (L6 cells [8]; current clamp, resting membrane potential, 10 μM): reversible and repeatable plasma membrane depolarization
- current under voltage clamp (L6 cells [8]; holding potential −70 mV, 1 μM and 10 μM): induced an inward current
- plasma membrane conductance (L6 cells [8]; voltage clamp, −130 mV to −60 mV): increase in conductance
